Assay results as given in patent US20130116336A1, “TREATMENT OF ATAXIA TELANGIECTASIA” (priority 2010, published 2013).

Key:
[1] = Animal study of alpha-tocotrienol quinone administration: pharmacokinetics in rats; conditions: rat, in vivo, 10 mg/kg
Description: (§1) The particular dosage appropriate for a specific patient is determined by dose titration. […] There is less than dose-proportionality since for an increase in doses of 2.4:6:10:20 there is only an increase in AUCs of 1.5:2.8:4.0:6.7. This lack of dose-proportionality may be due to decreased absorption since there is no change in t1/2 over dose range. Alpha-tocotrienol quinone tested in rats was safe when given acutely up to 2000 mg/kg.

[2] = test system: Ataxia-Telangiectasia fibroblast cells AG04405 (AT05); assay: Ataxia-Telangiectasia cell line assay: rescue of BSO-stressed A-T fibroblasts, Calcein AM viability; format: cell-based; conditions: A-T fibroblasts AT05 stressed with 1 mM BSO for 48 h, Calcein AM fluorescence, tested three times, read-out: ED50, protection of ataxia telangiectasia cells
Description: Alpha-Tocotrienol quinone, was tested for its ability to rescue Ataxia-Telangiectasia fibroblast cells obtained from the Coriell Cell Repositories (Camden, N.J.; repository number AG04405 (AT05), when the cells were stressed by addition of L-buthionine-(S,R)-sulfoximine (BSO), as described in Jauslin et al., Hum. Mol. Genet. 11(24):3055 (2002), Jauslin et al., FASEB J. 17:1972-4 (2003), and International Patent Application WO 2004/003565.
MEM (a medium enriched in amino acids and vitamins, catalog no. 1-31F24-I) and Medium 199 (M199, catalog no. 1-21F22-I) with Earle's Balanced Salts, without phenol red, were purchased from Bioconcept. Fetal Calf Serum was obtained from PAA Laboratories. Basic fibroblast growth factor and epidermal growth factor were purchased from PeproTech. Penicillin-streptomycin-glutamine mix, L-buthionine (S,R)-sulfoximine, and insulin from bovine pancreas were purchased from Sigma. Calcein AM was purchased from Molecular Probes. […]
100 μL of PBS containing 1.2 μM Calcein AM were then added to each well. […] After that time the PBS was discarded, the plate gently tapped on a paper towel and fluorescence (excitation/emission wavelengths of 485 nm and 525 nm, respectively) was read on a Gemini fluorescence reader. […]

in vivo = conditions: rat; for NOAEL: female
Description: as §1
The starting dose can be estimated based on the United States Food and Drug Administration guidelines titled “Estimating the Maximum Safe Starting Dose in Initial Clinical Trials for Therapeutics in Adult Healthy Volunteers” (July 2005) as well as the International Conference on Harmonisation of Technical Requirements for Registration of Pharmaceuticals for Human Use (ICH) guidelines titled “Guidance on Non-clinical Safety Studies for the Conduct of Human Clinical Trials and Marketing Authorization for Pharmaceuticals” (July 2008). Per ICH guidelines, predicted exposures from the starting dose should not exceed 1/50th the NOAEL (No-Adverse-Observed-Effect-Level) in the more sensitive species on a mg/m^2 basis. Following a single oral dose of alpha-tocotrienol quinone, the NOAEL was established to be 500 mg/kg for the female rat, i.e. 3,000 mg/m2. This dosage would be equivalent to 81 mg/kg in an adult human. 1/50th of 81 mg/kg is 1.6 mg/kg, i.e. 110 mg for a 70 kg adult, or 16 mg for a 10 kg child. This dose can be administered once, twice, or three times daily.

[3] = Animal study of alpha-tocotrienol quinone administration: pharmacokinetics in fasted dogs; conditions: dog, in vivo, po, 10 mg/kg
Description: as §1

SMILES: CC(C)=CCC/C(C)=C/CC/C(C)=C/CCC(C)(O)CCC1=C(C)C(=O)C(C)=C(C)C1=O (stereo not drawn) [Alpha-tocotrienol quinone]
- Cmax [1]: 931 ng/mL
- Tmax [1]: 3.5 h
- bioavailability [1]: ~90%
- half-life [1]: 3.5 h
- EC50 [2]: 0.028 µM
- NOAEL (in vivo): 81 mg/kg
- NOAEL (in vivo; po): 500 mg/kg
- dose at which safe when given acutely (in vivo): up to 2000 mg/kg
- NOAEL on body surface basis (in vivo; po): 3,000 mg/m2
- Cmax [3]: 442 ng/mL
- Tmax [3]: 2.8 h
- bioavailability [3]: ~16%
- half-life [3]: 7.6 h
